Reference: patent publication US6355799B1, “Substituted benzene compounds, process for their preparation, and herbicidal and defoliant compositions containing them” (ISK Americas Incorporated, priority 1997, dated 2002)

Tests used:
Type in all cases: in vivo
[1] = tested on: redroot pigweed (Amaranthus retroflexus, AMARE); assay: Pre-emerge test, greenhouse herbicide activity screening; details: phytotoxicity rating 0-100, 14 days after application
In short: (§1)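 Compounds in acetone were track-sprayed at 187 l/ha, 15–1000 g ai/ha, onto sandy loam pots. Pre-emerge seeds were sown one day before spraying, with surface watering afterwards. Post-emerge plants were at the 2–3 leaf stage and sprayed with 0.25% v/v non-ionic surfactant. Injury was rated 0–100 at 14 days.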

[2] = tested on: barnyardgrass (Echinochloa crus-galli, ECHCG); assay: as above; details: phytotoxicity rating 0-100, 14 days after application
In short: (§2)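 Compounds in acetone were track-sprayed at 15–1000 g ai/ha: pre-emergence onto soil sown the previous day, then top-watered to incorporate and later bottom-watered; post-emergence onto 2–3 leaf plants with 0.25% v/v surfactant, bottom-watered only. Ratings on a 0–100 phytotoxicity scale were taken at day 14.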

[3] = tested on: common ragweed (Ambrosia artemisizfolia L., AMBEL); assay: as above; details: phytotoxicity rating 0-100, 14 days after application
In short: as §2

[4] = tested on: green foxtail (Setaria viridis, SETVI); assay: as above; details: phytotoxicity rating 0-100, 14 days after application
In short: as §2

[5] = tested on: ivyleaf morningglory (Ipomoea hederacea, IPOHE); assay: as above; details: phytotoxicity rating 0-100, 14 days after application
In short: as §2

[6] = tested on: johnsongrass (Sorghum halepense, SORHA); assay: as above; details: phytotoxicity rating 0-100, 14 days after application
In short: as §2

[7] = tested on: lambsquarters (Chenopodium album, CHEAL); assay: as above; details: phytotoxicity rating 0-100, 14 days after application
In short: as §2

[8] = tested on: large crabgrass (Digitaria sanguinalis, DIGSA); assay: as above; details: phytotoxicity rating 0-100, 14 days after application
In short: as §2

[9] = tested on: sicklepod (Cassia obtusifolia, CASOB); assay: as above; details: phytotoxicity rating 0-100, 14 days after application
In short: as §2

[10] = tested on: velvetleaf (Abutilon theophrasti, ABUTH); assay: as above; details: phytotoxicity rating 0-100, 14 days after application
In short: as §2

[11] = tested on: field corn (Zea mays L., var. Dekalb 535, CORN); assay: Pre-emerge test, crop safety; details: crop damage rating 0-100, 14 days after application
In short: (§3)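 Applied at 15–1000 g ai/ha from acetone in 187 l/ha spray volume. Post-emergence applications included 0.25% v/v non-ionic surfactant and reached plants sown 8–21 days before. Pre-emergence applications were incorporated by surface watering. Efficacy or crop damage was rated on a 0–100 scale after 14 days.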

[12] = tested on: upland rice (Oryza sp., var. Tebonnet, RICE); assay: Pre-emerge test, crop safety; details: crop damage rating 0-100, 14 days after application
In short: as §3

[13] = tested on: barnyardgrass (Echinochloa crus-galli, ECHCG); assay: Post-emerge test, greenhouse herbicide activity screening; details: post-emerge, 14 days after application, rating scale 0-100
In short: as §1

[14] = tested on: green foxtail (Setaria viridis, SETVI); assay: as above; details: post-emerge, 14 days after application, rating scale 0-100
In short: as §1

[15] = tested on: ivyleaf morningglory (Ipomoea hederacea, IPOHE); assay: as above; details: post-emerge, 14 days after application, rating scale 0-100
In short: as §1

[16] = tested on: johnsongrass (Sorghum halepense, SORHA); assay: as above; details: post-emerge, 14 days after application, rating scale 0-100
In short: as §1

[17] = tested on: lambsquarters (Chenopodium album, CHEAL); assay: as above; details: post-emerge, 14 days after application, rating scale 0-100
In short: as §1

[18] = tested on: large crabgrass (Digitaria sanguinalis, DIGSA); assay: as above; details: post-emerge, 14 days after application, rating scale 0-100
In short: as §1

[19] = tested on: redroot pigweed (Amaranthus retroflexus, AMARE); assay: as above; details: post-emerge, 14 days after application
In short: as §1

[20] = tested on: sicklepod (Cassia obtusifolia, CASOB); assay: as above; details: post-emerge, 14 days after application, rating scale 0-100
In short: as §1

[21] = tested on: velvetleaf (Abutilon theophrasti, ABUTH); assay: as above; details: post-emerge, 14 days after application, rating scale 0-100
In short: as §1

[22] = tested on: field corn (Zea mays L., var. Dekalb 535, CORN); assay: Post-emerge test, crop safety; details: post-emerge, 14 days after application, rating scale 0-100
In short: (§4)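 Rating: 0–100 visual injury, 14 DAA. Application: acetone, 187 l/ha, 15–1000 g ai/ha, flat-fan track sprayer with nozzle 40–45 cm above soil or canopy. Post-emerge runs used 0.25% v/v surfactant on 2–3 leaf plants.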

[23] = tested on: upland rice (Oryza sp., var. Tebonnet, RICE); assay: Post-emerge test, crop safety; details: post-emerge, 14 days after application, rating scale 0-100
In short: as §4

## CCCCCC(=O)Nc1c(OC)c(Cl)cc(F)c1-n1c(=O)cc(C(F)(F)F)n(C)c1=O [2-198]
[1]; 63 g ai/ha
  Pre-emerge Herbicidal Activity AMARE: 100
[1]; 250 g ai/ha
  Pre-emerge Herbicidal Activity AMARE: 100
[2]; 63 g ai/ha
  Pre-emerge Herbicidal Activity ECHCG: 50
[2]; 250 g ai/ha
  Pre-emerge Herbicidal Activity ECHCG: 100
[3]; 63 g ai/ha
  Pre-emerge Herbicidal Activity AMBEL: 100
[3]; 250 g ai/ha
  Pre-emerge Herbicidal Activity AMBEL: 100
[4]; 63 g ai/ha
  Pre-emerge Herbicidal Activity SETVI: 90
[4]; 250 g ai/ha
  Pre-emerge Herbicidal Activity SETVI: 100
[5]; 63 g ai/ha
  Pre-emerge Herbicidal Activity IPOHE: 100
[5]; 250 g ai/ha
  Pre-emerge Herbicidal Activity IPOHE: 100
[6]; 63 g ai/ha
  Pre-emerge Herbicidal Activity SORHA: 50
[6]; 250 g ai/ha
  Pre-emerge Herbicidal Activity SORHA: 99
[7]; 63 g ai/ha
  Pre-emerge Herbicidal Activity CHEAL: 100
[7]; 250 g ai/ha
  Pre-emerge Herbicidal Activity CHEAL: 100
[8]; 63 g ai/ha
  Pre-emerge Herbicidal Activity DIGSA: 100
[8]; 250 g ai/ha
  Pre-emerge Herbicidal Activity DIGSA: 100
[9]; 63 g ai/ha
  Pre-emerge Herbicidal Activity CASOB: 50
[9]; 250 g ai/ha
  Pre-emerge Herbicidal Activity CASOB: 100
[10]; 63 g ai/ha
  Pre-emerge Herbicidal Activity ABUTH: 100
[10]; 250 g ai/ha
  Pre-emerge Herbicidal Activity ABUTH: 100
[11]; 63 g ai/ha
  Pre-emerge Herbicidal Activity CORN: 50
[11]; 250 g ai/ha
  Pre-emerge Herbicidal Activity CORN: 90
[12]; 63 g ai/ha
  Pre-emerge Herbicidal Activity RICE: 30
[12]; 250 g ai/ha
  Pre-emerge Herbicidal Activity RICE: 80
[13]; 63 g ai/ha
  phytotoxicity rating ECHCG: 5
[13]; 250 g ai/ha
  phytotoxicity rating ECHCG: 5
[14]; 63 g ai/ha
  phytotoxicity rating SETVI: 10
[14]; 250 g ai/ha
  phytotoxicity rating SETVI: 10
[15]; 63 g ai/ha
  phytotoxicity rating IPOHE: 80
[15]; 250 g ai/ha
  phytotoxicity rating IPOHE: 100
[16]; 63 g ai/ha
  phytotoxicity rating SORHA: 0
[16]; 250 g ai/ha
  phytotoxicity rating SORHA: 50
[17]; 63 g ai/ha
  phytotoxicity rating CHEAL: 80
[17]; 250 g ai/ha
  phytotoxicity rating CHEAL: 90
[18]; 63 g ai/ha
  phytotoxicity rating DIGSA: 10
[18]; 250 g ai/ha
  phytotoxicity rating DIGSA: 10
[19]; 63 g ai/ha, rating scale 0-100 (0 no damage, 100 complete death)
  phytotoxicity rating AMARE: 80
[19]; 250 g ai/ha, rating scale 0-100
  phytotoxicity rating AMARE: 95
[20]; 63 g ai/ha
  phytotoxicity rating CASOB: 50
[20]; 250 g ai/ha
  phytotoxicity rating CASOB: 30
[21]; 63 g ai/ha
  phytotoxicity rating ABUTH: 80
[21]; 250 g ai/ha
  phytotoxicity rating ABUTH: 100
[22]; 63 g ai/ha
  phytotoxicity rating CORN (crop damage): 10
[22]; 250 g ai/ha
  phytotoxicity rating CORN (crop damage): 40
[23]; 63 g ai/ha
  phytotoxicity rating RICE (crop damage): 10
[23]; 250 g ai/ha
  phytotoxicity rating RICE (crop damage): 30
